BindingDB's records for doi:10.1016/j.bmc.2003.11.015 (Bristol-Myers Squibb Pharmaceutical Research Institute, 2004)
pKi: −log10 of the molar value. Structures can show the parent of a compound that is named as a salt.

Tests used:
D(2) dopamine receptor [1] = biological target: D(2) dopamine receptor (Homo sapiens, UniProt P14416)
D(1A) dopamine receptor = D(1A) dopamine receptor (Rattus norvegicus, UniProt P18901)
D(2) dopamine receptor [2] = biological target: D(2) dopamine receptor (Rattus norvegicus, UniProt P61169)
Sequence of D(2) dopamine receptor (Rattus norvegicus, UniProt P61169) (P61169 whole entry): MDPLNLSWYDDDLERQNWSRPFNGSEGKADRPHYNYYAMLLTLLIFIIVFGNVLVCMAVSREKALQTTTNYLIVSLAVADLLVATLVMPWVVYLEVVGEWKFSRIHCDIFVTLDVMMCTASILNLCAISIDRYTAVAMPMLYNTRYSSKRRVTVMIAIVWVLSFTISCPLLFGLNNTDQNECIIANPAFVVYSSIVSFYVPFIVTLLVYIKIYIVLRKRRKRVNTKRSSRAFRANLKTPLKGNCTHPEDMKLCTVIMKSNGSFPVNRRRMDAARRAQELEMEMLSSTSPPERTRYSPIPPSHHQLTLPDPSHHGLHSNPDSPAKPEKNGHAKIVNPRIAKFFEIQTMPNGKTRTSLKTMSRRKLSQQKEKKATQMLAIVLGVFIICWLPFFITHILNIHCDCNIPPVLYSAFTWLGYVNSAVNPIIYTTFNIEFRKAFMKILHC

Sequence of D(1A) dopamine receptor (P18901 whole entry): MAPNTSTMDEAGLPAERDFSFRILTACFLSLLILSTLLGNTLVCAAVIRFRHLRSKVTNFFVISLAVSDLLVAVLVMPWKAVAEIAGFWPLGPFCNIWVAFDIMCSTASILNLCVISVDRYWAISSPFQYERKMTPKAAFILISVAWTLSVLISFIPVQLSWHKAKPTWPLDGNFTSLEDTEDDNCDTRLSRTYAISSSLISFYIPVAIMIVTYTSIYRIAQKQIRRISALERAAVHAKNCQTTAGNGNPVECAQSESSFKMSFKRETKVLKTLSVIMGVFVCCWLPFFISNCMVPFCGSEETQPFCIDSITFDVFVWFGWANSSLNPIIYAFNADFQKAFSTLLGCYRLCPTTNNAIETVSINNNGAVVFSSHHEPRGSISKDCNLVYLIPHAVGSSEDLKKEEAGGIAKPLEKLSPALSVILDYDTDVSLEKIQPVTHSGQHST
Sequence of D(2) dopamine receptor (Homo sapiens, UniProt P14416) (P14416 whole entry): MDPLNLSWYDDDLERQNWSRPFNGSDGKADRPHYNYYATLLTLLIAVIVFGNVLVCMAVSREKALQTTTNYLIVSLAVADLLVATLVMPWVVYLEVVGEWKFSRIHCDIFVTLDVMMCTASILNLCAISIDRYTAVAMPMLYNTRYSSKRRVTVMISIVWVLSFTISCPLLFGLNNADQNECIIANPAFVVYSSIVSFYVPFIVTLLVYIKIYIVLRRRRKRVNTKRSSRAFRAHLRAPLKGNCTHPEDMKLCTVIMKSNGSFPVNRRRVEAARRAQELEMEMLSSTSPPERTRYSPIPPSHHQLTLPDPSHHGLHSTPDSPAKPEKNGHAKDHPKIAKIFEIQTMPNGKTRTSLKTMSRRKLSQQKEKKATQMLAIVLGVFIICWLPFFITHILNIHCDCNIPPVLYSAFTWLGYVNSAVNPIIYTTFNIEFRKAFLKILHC

| pKi (D(2) dopamine receptor [1]) | pKi (D(1A) dopamine receptor) | pKi (D(2) dopamine receptor [2]) | Structure (SMILES) |
| --- | --- | --- | --- |
| 7.40 | 5.70 | – | CC1NC[C@H]2c3ccc(O)c(O)c3Cc3cccc1c32 (mixture of isomers) [(+/-)-3-methyldinapsoline hydrobromide] |
| – | 6.52 | – | CCCCC1NC[C@H]2c3ccc(O)c(O)c3Cc3cccc1c32 (mixture of isomers) [(+/-)-3-n-butyldinapsoline hydrobromide] |
| – | 6.37 | 6.36 | CCC1c2cccc3c2[C@@H](CNC3)c2ccc(O)c(O)c21 (mixture of isomers) [(+/-)-7-ethyldinapsoline hydrobromide] |
| – | 5.62 | 6.00 | COC(=O)CC1c2cccc3c2[C@@H](CNC3)c2ccc(O)c(O)c21 (mixture of isomers) [(+/-)-7-methoxycarbonylmethyldinapsoline] |
| – | 6.86 | 6.80 | CC1c2cccc3c2[C@@H](CNC3)c2ccc(O)c(O)c21 (mixture of isomers) [(+/-)-7-methyldinapsoline hydrobromide] |
| < 5.00 | 5.02 | – | CC1c2cccc3c2[C@@H](CN1C)c1ccc(O)c(O)c1C3 (mixture of isomers) [NSC_0] |
| – | 6.47 | 7.11 | Oc1ccc2c(c1O)Cc1cccc3c1[C@H]2CNC3C(F)(F)C(F)(F)C(F)(F)C(F)(F)F (mixture of isomers) [NSC_0] |
| 7.82 | 5.70 | – | CCCN1Cc2cccc3c2[C@@H](C1)c1ccc(O)c(O)c1C3 (racemic) [(+/-)-2-propyldinapsoline hydrobromide] |
| – | 5.82 | 7.80 | Oc1cc(Cl)c2c(c1O)Cc1cccc3c1[C@H]2CNC3 (racemic) [CAS_0] |
| – | 6.06 | 6.41 | CC1(C)c2cccc3c2[C@@H](CNC3)c2ccc(O)c(O)c21 (racemic) [NSC_0] |
| – | 6.42 | 7.15 | CN1Cc2cccc3c2[C@@H](C1)c1ccc(O)c(O)c1C3 (racemic) [NSC_0] |
| – | < 5.00 | 5.96 | O=[N+]([O-])c1cc(O)c(O)c2c1[C@@H]1CNCc3cccc(c31)C2 (racemic) [NSC_0] |
| – | 6.27 | 7.46 | Oc1ccc2c(c1O)Sc1cccc3c1C2CNC3 (centres undefined) [1,2,3,11b-Tetrahydro[1]benzothiopyrano[4,3,2-de]isoquinolin-8,9-diol] |
| – | 7.14 | 7.82 | Oc1ccc2c(c1O)Cc1ccc(O)c3c1[C@H]2CNC3 [4-hydroxydinapsoline hydrobromide] |
| 7.57 | 7.85 | – | CCc1ccc2c3c1Cc1c(ccc(O)c1O)[C@@H]3CNC2 [6-ethyldinapsoline hydrobromide] |
| – | 5.52 | 6.77 | Oc1ccc2c(c1O)Cc1c(F)ccc3c1C2CNC3 (centres undefined) [NSC_0] |
| – | – | 8.15 | Oc1ccc2c(c1O)Cc1c(F)ccc3c1[C@H]2CNC3 [NSC_0] |
| – | 7.16 | 7.55 | Oc1ccc2c(c1O)Cc1ccc(F)c3c1[C@H]2CNC3 [NSC_0] |
